Measurements as given in US11173145B2, “Compounds useful as inhibitors of indoleamine 2,3-dioxygenase and/or tryptophan dioxygenase” (Board of Regents, The University of Texas System, priority 2017, dated 2021).

Target: T1, IDO1 (Homo sapiens, UniProt P14902)
T1 construct: endogenous in cells; host or cells: HeLa cells (ATCC), IFNgamma-induced
Test: IDO1 cell-based assay (HeLa cells, IFNgamma-induced, N-formylkynurenine/L-tryptophan by RFMS)
Conditions: 10 ng/mL IFNgamma, 24 hours
Experimental: HeLa cells were obtained from the American Type Culture Collection (ATCC) and maintained in DMEM media containing 10% FBS. Cells (7,000/well) were seeded onto a 384 well plate in 50 μL of media and incubated at 37° C., 5% CO2 overnight. Cell media was aspirated, fresh media containing 10 ng/mL IFNgamma was added, and cells were incubated in absence or presence of various concentrations of test compound (final 0.5% DMSO) for 24 hours. Aliquots of the cell conditioned media were removed from the cell plate, and mixed with an equal volume of 200 mM ZnSO4 to precipitate media containing proteins. Two volumes of acetonitrile were added, mixed, and samples were then centrifuged at 2250G for 20 minutes at 4° C. Aliquots of the supernatant were diluted 1:10 in 0.1% formic acid containing 3 μM of deuterated Tryptophan as an internal standard.
Samples were analyzed via RFMS to quantify N-Formyl Kynurenine (AUC) and L-tryptophan (AUC). A C18 cartridge was used with mobile phases of 0.1% Formic Acid and 80% ACN/0.1% Formic Acid under isocratic conditions. Dose-response curves were analyzed using IC50 regression curve fitting (GeneData Screener). […] Cell viability was also assessed using the Cell Titer Glo Kit (Promega) following manufacturer recommendation.

T1 sequence (P14902 whole entry): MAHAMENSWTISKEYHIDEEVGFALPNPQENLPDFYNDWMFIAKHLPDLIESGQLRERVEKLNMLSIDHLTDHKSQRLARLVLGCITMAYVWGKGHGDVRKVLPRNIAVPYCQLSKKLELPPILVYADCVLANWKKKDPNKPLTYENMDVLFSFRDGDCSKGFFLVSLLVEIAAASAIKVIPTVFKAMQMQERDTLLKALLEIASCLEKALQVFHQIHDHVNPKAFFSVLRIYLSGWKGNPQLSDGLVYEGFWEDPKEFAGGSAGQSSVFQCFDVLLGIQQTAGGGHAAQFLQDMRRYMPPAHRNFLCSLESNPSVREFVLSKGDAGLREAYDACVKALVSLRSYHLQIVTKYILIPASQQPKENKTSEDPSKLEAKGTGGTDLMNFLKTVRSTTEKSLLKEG

Row | Structure (SMILES) | IC50
1 | CCC(NC(=O)c1cnc(OC)nc1)[C@H]1[C@@H]2C[C@@H](Oc3ncnc4ccc(F)cc34)C[C@@H]21 (stereo partly drawn) [Compound 68, N-(1-((1R,3s,5S,6r)-3-((6-fluoroquinazolin-4-yl)oxy)bicyclo[3.1.0]hexan-6-yl)propyl)-2-methoxypyrimidine-5-carboxamide] | 2000 to 5000 nM
2 | CCC(NC(=O)c1ccc2c(c1)OC(F)(F)O2)C1C2CC(Oc3ncnc4ccc(F)cc34)CC21 [Compound 69, 2,2-difluoro-N-(1-((1R,3s,5S,6r)-3-((6-fluoroquinazolin-4-yl)oxy)bicyclo[3.1.0]hexan-6-yl)propyl)benzo[d][1,3]dioxole-5-carboxamide] | < 200 nM
3 | CC(NC(=O)c1ccc(Cl)cc1)[C@H]1[C@@H]2C[C@@H](Oc3ncnc4cc(F)ccc34)C[C@@H]21 (stereo partly drawn) [Compound 70, 4-chloro-N-(1-((1R,3s,5S,6r)-3-((7-fluoroquinazolin-4-yl)oxy)bicyclo[3.1.0]hexan-6-yl)ethyl)benzamide] | < 200 nM
4 | Cc1cccnc1O[C@@H]1C[C@@H]2[C@H](C1)[C@H]2C(C)NC(=O)c1ccc(Cl)cc1 (stereo partly drawn) [Compound 71, 4-chloro-N-(1-((1R,3s,5S,6r)-3-((3-methylpyridin-2-yl)oxy)bicyclo[3.1.0]hexan-6-yl)ethyl)benzamide] | < 200 nM
5 | CCC(NC(=O)c1ccc(Cl)cc1)[C@H]1[C@@H]2C[C@@H](N3CCOCC3)C[C@@H]21 (stereo partly drawn) [Compound 73, 4-chloro-N-(1-((1R,3s,5S,6r)-3-morpholinobicyclo[3.1.0]hexan-6-yl)propyl)benzamide] | 2000 to 5000 nM
6 | CCC(NC(=O)c1ccc(OC)nc1)C1C2CC(Oc3ncnc4ccc(F)cc34)CC21 [Compound 78, N-(1-((1R,3s,5S,6r)-3-((6-fluoroquinazolin-4-yl)oxy)bicyclo[3.1.0]hexan-6-yl)propyl)-6-methoxynicotinamide] | < 200 nM
7 | O=C(Cc1ccc(Cl)cc1)NC1[C@H]2CC(Oc3cnnc4ccccc34)C[C@@H]12 (stereo partly drawn) [Compound 79, 2-(4-chlorophenyl)-N-((1R,3s,5S,6r)-3-(cinnolin-4-yloxy)bicyclo[3.1.0]hexan-6-yl)acetamide] | 200 to 2000 nM
8 | CCOC(=O)CC(NC(=O)c1ccc(Cl)cc1)[C@H]1[C@@H]2C[C@@H](Oc3cnnc4ccccc34)C[C@@H]21 (stereo partly drawn) [Compound 84, ethyl 3-(4-chlorobenzamido)-3-((1R,3s,5S,6r)-3-(cinnolin-4-yloxy)bicyclo[3.1.0]hexan-6-yl)propanoate] | < 200 nM
9 | CN(C(=O)Cc1ccc(Cl)cc1)[C@H]1[C@@H]2C[C@@H](Oc3cnnc4ccccc34)C[C@@H]21 [Compound 86, 2-(4-chlorophenyl)-N-((1R,3s,5S,6r)-3-(cinnolin-4-yloxy)bicyclo[3.1.0]hexan-6-yl)-N-methylacetamide] | 2000 to 5000 nM
10 | CC(C)(NC(=O)c1ccc(C#N)cc1)C1[C@H]2CC(Oc3cnnc4ccccc34)C[C@@H]12 (stereo partly drawn) [Compound 88, N-(2-((1R,5S)-3-(cinnolin-4-yloxy)bicyclo[3.1.0]hexan-6-yl)propan-2-yl)-4-cyanobenzamide] | < 200 nM
11 | CCC(NC(=O)c1ccc(Cl)cc1)[C@H]1[C@@H]2C[C@@H](N=[N+]=[N-])C[C@@H]21 (stereo partly drawn) [Compound 90, N-(1-((1R,3s,5S,6r)-3-azidobicyclo[3.1.0]hexan-6-yl)propyl)-4-chlorobenzamide] | 200 to 2000 nM
12 | CCC(NC(=O)c1ccc(Cl)cc1)[C@H]1[C@@H]2C[C@@H](Oc3c(Cl)ccnc3C)C[C@@H]21 (stereo partly drawn) [Compound 92, 4-chloro-N-(1-((1R,3s,5S,6r)-3-((4-chloro-2-methylpyridin-3-yl)oxy)bicyclo[3.1.0]hexan-6-yl)propyl)benzamide] | < 200 nM
13 | CCC(NC(=O)c1ccc(Cl)cc1)[C@H]1[C@@H]2C[C@@H](Oc3ccnc(C)c3F)C[C@@H]21 (stereo partly drawn) [Compound 93, 4-chloro-N-(1-((1R,3s,5S,6r)-3-((3-fluoro-2-methylpyridin-4-yl)oxy)bicyclo[3.1.0]hexan-6-yl)propyl)benzamide] | < 200 nM

Now from value to compound:

Row | IC50 | Structure (SMILES)
14 | < 200 nM | CCC(NC(=O)c1ccc(Cl)cc1)C1C2CC(Oc3nncc4ccccc34)CC21 [Compound 72, 4-chloro-N-(1-((1R,3s,5S,6r)-3-(phthalazin-1-yloxy)bicyclo[3.1.0]hexan-6-yl)propyl)benzamide]
15 | 200 to 2000 nM | CCC(NC(=O)c1ccc(OC)nc1)[C@H]1[C@@H]2C[C@@H](n3cnc4ccc(F)cc4c3=O)C[C@@H]21 (stereo partly drawn) [Compound 74, N-(1-((1R,3s,5S,6r)-3-(6-fluoro-4-oxoquinazolin-3(4H)-yl)bicyclo[3.1.0]hexan-6-yl)propyl)-6-methoxynicotinamide]
16 | < 200 nM | CCC(NC(=O)c1ccc(Cl)cn1)C1C2CC(n3cnc4ccc(F)cc4c3=O)CC21 [Compound 75, 5-chloro-N-(1-((1R,3s,5S,6r)-3-(6-fluoro-4-oxoquinazolin-3(4H)-yl)bicyclo[3.1.0]hexan-6-yl)propyl)picolinamide]
17 | 200 to 2000 nM | CCC(NC(=O)c1ccc(C#N)cn1)C1C2CC(n3cnc4ccc(F)cc4c3=O)CC21 [Compound 76, 5-cyano-N-(1-((1R,3s,5S,6r)-3-(6-fluoro-4-oxoquinazolin-3(4H)-yl)bicyclo[3.1.0]hexan-6-yl)propyl)picolinamide]
18 | 200 to 2000 nM | CCC(NC(=O)c1ccc(Cl)cn1)C1[C@H]2CC(Oc3cnnc4ccccc34)C[C@@H]12 (stereo partly drawn) [Compound 77, 5-chloro-N-(1-((1R,5S)-3-(cinnolin-4-yloxy)bicyclo[3.1.0]hexan-6-yl)propyl)picolinamide]
19 | < 200 nM | CCC(NC(=O)c1ccc(C#N)cc1)[C@H]1[C@@H]2C[C@@H](Oc3cnnc4ccccc34)C[C@@H]21 (stereo partly drawn) [Compound 80, N-(1-((1R,3s,5S,6r)-3-(cinnolin-4-yloxy)bicyclo[3.1.0]hexan-6-yl)propyl)-4-cyanobenzamide]
20 | 200 to 2000 nM | CCC(NC(=O)c1ccc(Cl)cc1)[C@H]1[C@@H]2C[C@@H](n3cncn3)C[C@@H]21 (stereo partly drawn) [Compound 81, N-(1-((1R,3s,5S,6r)-3-(1H-1,2,4-triazol-1-yl)bicyclo[3.1.0]hexan-6-yl)propyl)-4-chlorobenzamide]
21 | 200 to 2000 nM | CCC(NC(=O)c1ccc(C#N)cn1)C1C2CC(Oc3cnnc4ccccc34)CC21 [Compound 82, N-(1-((1R,3s,5S,6r)-3-(cinnolin-4-yloxy)bicyclo[3.1.0]hexan-6-yl)propyl)-5-cyanopicolinamide]
22 | 200 to 2000 nM | CCC(NC(=O)c1ccc(C#N)cn1)[C@H]1[C@@H]2C[C@@H](n3ncc(=O)c4ccccc43)C[C@@H]21 (stereo partly drawn) [Compound 83, 5-cyano-N-(1-((1R,3s,5S,6r)-3-(4-oxocinnolin-1(4H)-yl)bicyclo[3.1.0]hexan-6-yl)propyl)picolinamide]
23 | > 5000 nM | O=C(Cc1ccc(Cl)cc1)N[C@H]1[C@@H]2C[C@@H](n3ncc(=O)c4ccccc43)C[C@@H]21 [Compound 85, 2-(4-chlorophenyl)-N-((1R,3s,5S,6r)-3-(4-oxocinnolin-1(4H)-yl)bicyclo[3.1.0]hexan-6-yl)acetamide]
24 | < 200 nM | CC(C)(NC(=O)c1ccc(C#N)cc1)C1[C@H]2CC(n3ncc(=O)c4ccccc43)C[C@@H]12 (stereo partly drawn) [Compound 87, 4-cyano-N-(2-((1R,5S)-3-(4-oxocinnolin-1(4H)-yl)bicyclo[3.1.0]hexan-6-yl)propan-2-yl)benzamide]
25 | > 5000 nM | CCC(NC(=O)c1ccc(Cl)cc1)[C@H]1[C@@H]2C[C@@H](n3cc(C(=O)O)nn3)C[C@@H]21 (stereo partly drawn) [Compound 94, 1-((1R,3s,5S,6r)-6-(1-(4-chlorobenzamido)propyl)bicyclo[3.1.0]hexan-3-yl)-1H-1,2,3-triazole-4-carboxylic acid]
